COC(=O)Nc1nc2ccc(C(=O)c3ccc(F)cc3)cc2[nH]1
Settings | solubility (mole fraction)
in 1,4-dioxane, 288.15 K | 8.29e-05
in 1,4-dioxane, 293.15 K | 9.83e-05
in 1,4-dioxane, 298.15 K | 0.00012
in 1,4-dioxane, 303.15 K | 0.00014
in 1,4-dioxane, 308.15 K | 0.000168
in 1,4-dioxane, 313.15 K | 0.000195
in 1,4-dioxane, 318.15 K | 0.000229
in 1,4-dioxane, 323.15 K | 0.000266
in 1,4-dioxane, 328.15 K | 0.000308
in 1,4-dioxane, 333.15 K | 0.000357
in 2-butanone, 283.15 K | 0.000232
in 2-butanone, 288.15 K | 0.000305
in 2-butanone, 293.15 K | 0.000401
in 2-butanone, 298.15 K | 0.000516
in 2-butanone, 303.15 K | 0.000682
in 2-butanone, 308.15 K | 0.000837
in 2-butanone, 313.15 K | 0.00104
in 2-butanone, 318.15 K | 0.00132
in 2-butanone, 323.15 K | 0.0017
in 2-butanone, 328.15 K | 0.00204
in 2-butanone, 333.15 K | 0.00248
in DMF, 283.15 K | 0.000572
in DMF, 288.15 K | 0.000708
in DMF, 293.15 K | 0.000821
in DMF, 298.15 K | 0.00098
in DMF, 303.15 K | 0.00116
in DMF, 308.15 K | 0.00138
in DMF, 313.15 K | 0.00162
in DMF, 318.15 K | 0.00188
in DMF, 323.15 K | 0.0022
in DMF, 328.15 K | 0.00259
in DMF, 333.15 K | 0.00309
in DMSO, 293.15 K | 0.00191
in DMSO, 298.15 K | 0.00221
in DMSO, 303.15 K | 0.00261
in DMSO, 308.15 K | 0.00303
in DMSO, 313.15 K | 0.00358
in DMSO, 318.15 K | 0.00419
in DMSO, 323.15 K | 0.00481
in DMSO, 328.15 K | 0.00548
in DMSO, 333.15 K | 0.00627
in NMP, 283.15 K | 0.00078
in NMP, 288.15 K | 0.000918
in NMP, 293.15 K | 0.00103
in NMP, 298.15 K | 0.00122
in NMP, 303.15 K | 0.00142
in NMP, 308.15 K | 0.00162
in NMP, 313.15 K | 0.00188
in NMP, 318.15 K | 0.00215
in NMP, 323.15 K | 0.00252
in NMP, 328.15 K | 0.00308
in NMP, 333.15 K | 0.00373
in ethanol, 283.15 K | 1.03e-06
in ethanol, 288.15 K | 1.56e-06
in ethanol, 293.15 K | 2.41e-06
in ethanol, 298.15 K | 3.74e-06
in ethanol, 303.15 K | 5.44e-06
in ethanol, 308.15 K | 7.73e-06
in ethanol, 313.15 K | 1.01e-05
in ethanol, 318.15 K | 1.41e-05
in ethanol, 323.15 K | 1.94e-05
in ethanol, 328.15 K | 2.55e-05
in ethanol, 333.15 K | 3.33e-05
in isobutanol, 283.15 K | 1.2e-05
in isobutanol, 288.15 K | 1.62e-05
in isobutanol, 293.15 K | 2.13e-05
in isobutanol, 298.15 K | 2.73e-05
in isobutanol, 303.15 K | 3.55e-05
in isobutanol, 308.15 K | 4.61e-05
in isobutanol, 313.15 K | 5.88e-05
in isobutanol, 318.15 K | 7.44e-05
in isobutanol, 323.15 K | 9.39e-05
in isobutanol, 328.15 K | 0.000116
in isobutanol, 333.15 K | 0.000135
in isopropanol, 283.15 K | 6.58e-06
in isopropanol, 288.15 K | 7.97e-06
in isopropanol, 293.15 K | 9.58e-06
in isopropanol, 298.15 K | 1.14e-05
in isopropanol, 303.15 K | 1.34e-05
in isopropanol, 308.15 K | 1.63e-05
in isopropanol, 313.15 K | 1.93e-05
in isopropanol, 318.15 K | 2.22e-05
in isopropanol, 323.15 K | 2.65e-05
in isopropanol, 328.15 K | 3.12e-05
in isopropanol, 333.15 K | 3.56e-05
in methanol, 283.15 K | 7.08e-07
in methanol, 288.15 K | 1.05e-06
in methanol, 293.15 K | 1.57e-06
in methanol, 298.15 K | 2.25e-06
in methanol, 303.15 K | 3.15e-06
in methanol, 308.15 K | 4.41e-06
in methanol, 313.15 K | 6.31e-06
in methanol, 318.15 K | 8.49e-06
in methanol, 323.15 K | 1.17e-05
in methanol, 328.15 K | 1.59e-05
in methanol, 333.15 K | 2.14e-05
in n-butanol, 283.15 K | 1.93e-05
in n-butanol, 288.15 K | 2.58e-05
in n-butanol, 293.15 K | 3.46e-05
in n-butanol, 298.15 K | 4.36e-05
in n-butanol, 303.15 K | 5.64e-05
in n-butanol, 308.15 K | 7.1e-05
in n-butanol, 313.15 K | 8.77e-05
in n-butanol, 318.15 K | 0.000111
in n-butanol, 323.15 K | 0.000141
in n-butanol, 328.15 K | 0.000173
in n-butanol, 333.15 K | 0.000218
in n-propanol, 283.15 K | 7.7e-06
in n-propanol, 288.15 K | 1e-05
in n-propanol, 293.15 K | 1.32e-05
in n-propanol, 298.15 K | 1.69e-05
in n-propanol, 303.15 K | 2.16e-05
in n-propanol, 308.15 K | 2.64e-05
in n-propanol, 313.15 K | 3.39e-05
in n-propanol, 318.15 K | 4.31e-05
in n-propanol, 323.15 K | 5.53e-05
in n-propanol, 328.15 K | 6.78e-05
in n-propanol, 333.15 K | 8.09e-05
in water, 283.15 K | 1.03e-07
in water, 288.15 K | 1.31e-07
in water, 293.15 K | 1.67e-07
in water, 298.15 K | 2.12e-07
in water, 303.15 K | 2.6e-07
in water, 308.15 K | 3.23e-07
in water, 313.15 K | 4e-07
in water, 318.15 K | 4.96e-07
in water, 323.15 K | 6.07e-07
in water, 328.15 K | 7.33e-07
in water, 333.15 K | 8.81e-07

Source: BigSolDB 2.1
